52 compounds from the OPERA property sets (Mansouri et al. 2018) can be followed below.

Usually boiling point stands for the temperature of boiling at a given pressure. The term melting point denotes the temperature, or range, at which the solid turns liquid.

Conditions in one data set: not given
On to `CC(C(C)(C)C)C(C)(C)C`, for which the boiling point was found to be 159 °C and the melting point is -38.7 °C.

`Cc1c2ccccc2c(C)c2c1ccc1ccccc12` showed a log10 Koc (L/kg) of 5.37 and a melting point of 122 °C.

As for `CC(C)N(C(=O)SCC(Cl)=CCl)C(C)C`, the log10 Koc (L/kg) came out at 3.28, the log10 vapour pressure (mmHg) is -3.82 and the melting point turned out to be 25 °C. Turning to `O=C(O)Cc1ccccc1CC(=O)O`, the melting point worked out at 151 °C. For the compound `C#CC(C)(C)NC(=O)c1ccccc1`, the log10 Koc (L/kg) turned out to be 1.54.

`CNC(=O)Oc1cccc2c1OC(C)(C)C2`: the log10 Koc (L/kg) worked out at 1.75, the log10 vapour pressure (mmHg) is -5.31 and the melting point came to 151 °C. With `CCCCCCCCCCCCCCCCCCCCCCCCCC(=O)OC`, the melting point worked out at 63.8 °C. The compound `COc1ccc(NC(C)=O)cc1` displayed a boiling point of 335 °C, a log10 Koc (L/kg) of 1.4 and a melting point of 131 °C. The compound `Cn1cnc2c1c(=O)[nH]c(=O)n2C` gave a melting point of 357 °C. Still for that read-out and setting: then `Cc1ccc(C)c(OCCCC(C)(C)C(=O)O)c1`, with 62 °C. In the case of `CCC(C)NC(C)CC` (stereo not given), the boiling point came to 135 °C and the ready biodegradability entry is given as “not readily biodegradable”.

For the compound `N#Cc1ncnc2nc[nH]c12`, the melting point was 188 °C. The same measure, in the same setting: the result for `CC(=O)O.CCCCCCCCCCCCCCCCCC1=NCCN1` reads 65 °C; that for `C=C(C)C(=O)C(=CC(=O)O)OC`, 83 °C.

For the compound `Oc1ccccc1O`, the boiling point amounted to 246 °C, the log10 vapour pressure (mmHg) is -2.44, the melting point came to 105 °C and the ready biodegradability result was “readily biodegradable”. Compound `N#CI` returned a melting point of 147 °C.

As to `N#Cc1c(F)c(F)c(C#N)c(F)c1F`, the melting point worked out at 198 °C. The compound `Cc1c(C)c([N+](=O)[O-])c(C(C)(C)C)c([N+](=O)[O-])c1C` yielded a melting point of 136 °C. In the case of `CC(=O)c1ccc2ccccc2c1O`, the melting point came to 101 °C. `C1=NN(c2ccccc2)CC1` had a boiling point of 273 °C and a melting point of 52 °C.

As to `CC(C)(C)c1cc(N=Nc2ccccc2[N+](=O)[O-])c(O)c(C(C)(C)C)c1`, the ready biodegradability result is on record as “not readily biodegradable”. In turn, `Cc1cnc(C)c(C)c1` had a boiling point of 184 °C. On to `C=COCC(CC)CCCC` (stereo not given), for which the melting point is -100 °C and the ready biodegradability result is on record as “not readily biodegradable”.

On to `C=COCCCCCC`, for which the boiling point was 143 °C.

Consider `Cc1c(F)c(F)c(F)c(F)c1F`, for which the boiling point was found to be 118 °C and the melting point is -29.8 °C.

`Nc1ccc(Nc2ccc(N)cc2)cc1` had a melting point of 158 °C.

As for `CC[C@H]1C[C@@H]2C[C@H]3c4[nH]c5cc(OC)ccc5c4CC[N@@](C2)[C@@H]13`, the melting point worked out at 214 °C. As for `ClC=CCCl` (mixture of isomers), the boiling point was found to be 109 °C, the log10 Henry constant (atm·m³/mol) was -2.62, the log10 Koc (L/kg) came to 1.67 and the melting point is -50 °C.

Consider `O=Cc1cccc2c1CCOC2=O`, for which the melting point was 140 °C. In the case of `COc1cc(Cl)c(Cl)cc1OC`, the melting point was found to be 83 °C. The same measure, in the same setting: the result for `CCOC(=O)CCCCCBr` reads 33 °C. In turn, `CCCCCCCCCC#N` yielded a boiling point of 243 °C and a melting point of -17.9 °C. For the compound `CCOP(=O)(NC(C)C)Oc1ccc(SC)c(C)c1` (stereo not given), the log10 Koc (L/kg) amounted to 2.51, the log10 vapour pressure (mmHg) is -6 and the melting point came out at 49 °C. Turning to `O=C1C=CC(=O)C(c2ccccc2)=C1`, the melting point amounted to 114 °C.

In the case of `FCCCCCCCl`, the boiling point turned out to be 168 °C.

`O=C(F)C(F)(F)F` had a boiling point of -59 °C and a log10 Henry constant (atm·m³/mol) of -3.48. In turn, `CC(C#N)CCC#N` (stereo not given) registered a boiling point of 263 °C, a log10 vapour pressure (mmHg) of -2.29 and a melting point of -45 °C. In turn, `CC1=CCC(C(C)C)C=C1` (stereo not given) displayed a boiling point of 172 °C and a log10 vapour pressure (mmHg) of 0.147. Regarding `COC(=O)c1ccccc1[N+](=O)[O-]`, the boiling point was 275 °C and the melting point was -13 °C. `CCCCCCC(=O)CC` gave a boiling point of 190 °C and a melting point of -8 °C. For `Nc1c(Br)cc(Br)cc1Br`, the boiling point turned out to be 300 °C and the melting point was determined as 122 °C. The corresponding values for `C=CCCCCC(=O)O` are 226 °C and -6.5 °C. In the case of `CC(=O)CCC(=O)OCC(C)C`, the boiling point was determined as 228 °C. For `COP(=S)(OC)SCC(=O)N(c1ccc(Cl)cc1)C(C)C`, the melting point was found to be 51 °C. As to `COP(=S)(OC)SCc1nc(N)nc(N)n1`, the log10 vapour pressure (mmHg) is -6.01, the melting point was determined as 165 °C and the ready biodegradability result is “not readily biodegradable”.

Turning to `N#Cc1ccccc1O`, the melting point came out at 98 °C. As to `O=P(OCCCl)(OCCCl)OCCCl`, the boiling point came to 330 °C, the log10 vapour pressure (mmHg) is -1.21, the melting point was -35 °C and the ready biodegradability result is “not readily biodegradable”.

Still in this data set, the particulars now being: fish.
In turn, `OC(c1ccc(Cl)cc1)(c1cncnc1)c1ccccc1Cl` (stereo not given) returned a log10 biotransformation half-life (days) of 0.57. `[Na][O]c1c(Cl)c(Cl)c(Cl)c(Cl)c1Cl` gave a log10 BCF of 2.78. Take `c1ccc2c(c1)Cc1ccccc1-2`: the log10 BCF came to 2.72 and the log10 biotransformation half-life (days) was found to be 0.7. Consider `O=C(Nc1ccc2c(O)cc(S(=O)(=O)O)cc2c1)Nc1ccc2c(O)cc(S(=O)(=O)O)cc2c1`, for which the log10 BCF was 0.26. Regarding `CCCCCCCCCCCC(=O)O`, the log10 BCF came to 2.4. Still for that read-out and setting: then `C=COCC(CC)CCCC` (stereo not given), with 2.78.

As to `O=P(OCCCl)(OCCCl)OCCCl`, the log10 BCF worked out at 0.11 and the log10 biotransformation half-life (days) was -0.66.
